# Data taken from patent US6268478A, “Intracellular vitamin D binding protein” (Cedars-Sinai Medical Center, priority 1997, dated 2001).
# Tests used:
# [1] = biological target: T1, human heat shock protein-70 (hsp70) (Homo sapiens, UniProt P0DMV8); experiment: Competitive ligand binding of [3H]25-hydroxyvitamin D3 to recombinant inducibly-expressed hsp70
# T1 construct: purchased StressGen, Victoria, B.C., Canada
# Method: Ligand Binding Analyses. The ability of the unfractionated 100,000×g supernatant extracts of B95-8 cells and individual column fractions of chromatographically-purified material to bind [^3 H]25-OHD3 in the presence or absence of increasing concentrations of radioinert compounds (see Table I) was performed by competitive protein binding assay as previously described in Gacad et al. Bone Min. Res. 8:27-35 (1993).
# (§1) Briefly, unfractionated or post-FPLC fractions were incubated in ETD-0.5 M NaCl overnight at 4° C. with 4 nM [3H]25-OHD3 in the presence or absence of 1-100 nM unlabeled competitive ligand. Protein-bound [^3 H]25-OHD3 was separated from unbound sterol by incubation with dextran-coated charcoal. Specifically-bound 25-OHD3 was determined by subtracting the mean of duplicate determinations of binding in the presence of 100 nM radioinert competitive ligand from the mean of determinations of binding in the absence of added competitive ligand. Specific binding of 17β-[^3 H]estradiol as well as [^3 H]25-OHD3 to IDBP(s) was also determined in individual fractions eluting from hydroxyapatite chromatography. The binding assay conditions were the same as those stated above except that specific binding was determined in ETD-0.3 M Na2 HPO4 buffer (pH 6.8).
# Inducibly-expressed, recombinant human heat shock protein-70 (hsp70) was purchased from StressGen, Victoria, B.C., Canada. […]
# IDBP(s) = experiment: Specific binding of [3H]25-OHD3 and [3H]17β-estradiol in post-hydroxyapatite peak I and peak II fractions of B95-8 extract; set-up: species or system Callithrix jacchus (common marmoset); settings: both peak I and peak II from hydroxyapatite chromatography; tracer ± 100 nM radioinert ligand
# Method: as §1
# On the basis of protein recovery, enrichment of bioactivity, ease of use, and resin available for FPLC and/or HPLC applications, three chromatographic supports, one each from the three different kinds of packing materials evaluated, were selected for serial chromatographic purification of IDBP(s): BPS-DE cellulose for anion exchange chromatography, phenyl sepharose (mid sub) for hydrophobic interaction chromatography, and HTP-hydroxyapatite for separation of proteins by their surface charge. […]
# IDBP [2] = biological target: T2, IDBP (Saguinus oedipus, UniProt Q9N1U2); experiment: 25-OHD3 binding activity of cells transiently transfected with plasmid expressing the IDBP coding region; set-up: species or system Callithrix jacchus (common marmoset)
# T2 sequence (Q9N1U2 whole entry): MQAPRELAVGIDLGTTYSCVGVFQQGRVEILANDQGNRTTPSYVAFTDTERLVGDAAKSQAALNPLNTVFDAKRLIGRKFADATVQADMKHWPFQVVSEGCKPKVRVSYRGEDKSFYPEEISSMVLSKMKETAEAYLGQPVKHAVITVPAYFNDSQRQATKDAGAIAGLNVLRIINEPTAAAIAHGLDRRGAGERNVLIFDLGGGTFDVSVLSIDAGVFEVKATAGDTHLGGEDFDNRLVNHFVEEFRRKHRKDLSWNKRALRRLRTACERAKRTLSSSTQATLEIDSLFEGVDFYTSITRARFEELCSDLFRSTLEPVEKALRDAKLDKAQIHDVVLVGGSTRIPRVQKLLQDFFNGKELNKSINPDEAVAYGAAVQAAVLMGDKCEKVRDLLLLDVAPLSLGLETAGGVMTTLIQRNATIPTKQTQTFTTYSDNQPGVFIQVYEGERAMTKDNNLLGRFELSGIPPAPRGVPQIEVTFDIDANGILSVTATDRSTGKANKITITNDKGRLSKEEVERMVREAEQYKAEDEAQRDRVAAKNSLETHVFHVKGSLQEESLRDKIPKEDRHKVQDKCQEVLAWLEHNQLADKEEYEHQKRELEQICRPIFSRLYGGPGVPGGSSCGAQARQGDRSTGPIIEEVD
# Excerpt: The coding region of IDBP shown in FIG. 3 was cloned into pcDNA3.1 (Invitrogen). […] Control plasmid was the pcDNA3.1 vector without cloned insert.
# [3] = system: ATP binding domain of IDBP; experiment: 25-OHD3 binding activity of cells transfected with construct encoding the IDBP ATP binding domain; set-up: species or system Callithrix jacchus (common marmoset); settings: COS-7 and OMK gibbon cells transfected with ATP binding domain construct
# Excerpt: This experiment was repeated with expression plasmids which encode different fragments of IDBP. The coding region of the cDNA contains a convenient Eco RI restriction site which divides the region encoding the deduced ATP binding from the deduced peptide binding domain and variable domain.
# IDBP [4] = biological target: T2, IDBP; experiment: Competitive displacement of [3H]25-OHD3 from IDBP in unfractionated 100,000×g supernatant extracts of B95-8 cells (competitive protein binding assay, dextran-coated charcoal); set-up: post-nuclear 100,000xg supernatant of B95-8 marmoset lymphoblasts and partly purified column fractions; species or system Callithrix jacchus (common marmoset); settings: for RBI (Relative Binding Index): relative ability of maximally effective concentration to displace [3H]25-OHD3, 25-OHD3 assigned 100, unfractionated 100,000×g supernatant of B95-8 cells
# Excerpt: Culture and Extraction of B95-8 Cells. The B-lymphoblastoid cell line B95-8 was obtained from the American Type Culture Collection (ATCC, Manassas, Va.). This cell line was established by EBV transformation of blood leukocytes from the vitamin D-resistant new world primate, Callithrix jacchus (common marmoset). The cell line was maintained in RPMI-1640 medium (Irvine Scientific, Irvine, Calif.) routinely supplemented with 10% fetal calf serum (FCS; Gemini BioProducts, Calabasas, Calif.), 100 units/ml penicillin, 100 μg/ml streptomycin, 2 mM L-glutamine (both from Gibco-BRL, Grand Island, N.Y.) in an atmosphere of 95% air-5% CO2.
# Confluent cultures were harvested by agitation to dislodge clumps of lymphoblasts that were weakly adherent to the plastic flask. Harvested cells were pelleted and washed twice in ice cold phosphate-buffered saline (PBS; 20 mM Na2 HPO4 and 150 mM NaCl, pH 7.2). The pelleted cells were then resuspended in ETD buffer (1 mM EDTA, 10 mM Tris-HCl, 5 mM dithiothreitol, pH 7.4) containing 1 mM phenylmethylsulfonylflouride and homogenized by Polytron on ice in five 15-second bursts. Nuclei with associated nuclear steroid receptor proteins, were pelleted at 4,000×g for 30 minutes at 4° C. The post-nuclear supernatant of this spin was then subjected to high-speed centrifugation at 100,000×g for 1 hour at 4° C. The resulting "100,000×g supernatant" was either aliquoted and stored at […] for further study, used in competitive ligand binding analyses, or subjected to further purification as described below in Example II.
# Ligand Binding Analyses. The ability of the unfractionated 100,000×g supernatant extracts of B95-8 cells and individual column […] of increasing concentrations of radioinert compounds (see Table I) was performed by competitive protein binding assay as previously described in Gacad et al. Bone Min. Res. 8:27-35 (1993).
# […] […] […] […] The binding assay conditions were the same as those stated above except that specific binding was determined in ETD-0.3 M Na2 HPO4 buffer (pH 6.8).
# T1 sequence (P0DMV8 whole entry): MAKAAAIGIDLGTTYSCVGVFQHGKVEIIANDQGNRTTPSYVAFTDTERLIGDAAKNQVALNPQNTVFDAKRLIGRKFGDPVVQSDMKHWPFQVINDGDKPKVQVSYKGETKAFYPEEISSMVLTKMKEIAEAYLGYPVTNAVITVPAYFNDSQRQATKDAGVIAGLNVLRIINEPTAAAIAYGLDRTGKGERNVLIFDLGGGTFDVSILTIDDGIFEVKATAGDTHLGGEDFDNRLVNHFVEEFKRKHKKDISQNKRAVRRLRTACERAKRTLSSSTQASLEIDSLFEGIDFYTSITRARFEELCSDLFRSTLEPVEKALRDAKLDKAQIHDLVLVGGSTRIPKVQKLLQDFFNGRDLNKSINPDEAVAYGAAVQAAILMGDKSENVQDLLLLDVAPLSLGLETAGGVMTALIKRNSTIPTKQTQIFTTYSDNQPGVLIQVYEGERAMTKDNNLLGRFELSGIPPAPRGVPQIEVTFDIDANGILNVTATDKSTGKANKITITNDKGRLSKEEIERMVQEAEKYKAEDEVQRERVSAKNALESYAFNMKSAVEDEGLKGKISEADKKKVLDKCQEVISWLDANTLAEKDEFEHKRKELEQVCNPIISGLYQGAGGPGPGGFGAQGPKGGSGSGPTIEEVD
molecule,measurement,setting,value
[^3 H]25-hydroxy vitamin D3 [[^3 H]25-OHD3],specific [3H]25-OHD3 binding activity of hsp70,[1]; recombinant human inducibly-expressed hsp70,exhibited specific [^3 H]25-OHD3 binding activity
"C=C1CC[C@H](O)C/C1=C/C=C1\CCC[C@]2(C)[C@@H]([C@H](C)CCCC(C)(C)O)CC[C@@H]12 [25-OHD3, 25-hydroxy vitamin D3]",specific binding activity for 25-OHD3 relative to that of 17β-estradiol,IDBP(s),approximately 2 fold
same,IC (maximal displacement),"[1]; inducibly expressed hsp70, read-out: concentration of radioinert ligand required to achieve maximal displacement of [3H]25-hydroxyvitamin D3",0.05 to 0.1 µM
same,25-OHD3 binding activity,IDBP [2]; Cos-7 cells transfected with IDBP coding region in pcDNA3.1,approximately 0.8 fmol/μg protein
same,25-OHD3 binding activity,IDBP [2]; OMK gibbon cells transfected with IDBP coding region in pcDNA3.1,approximately 1.0 fmol/μg protein
same,25-OHD3 binding activity,[3],exhibited enhanced 25-OHD3 binding activity
same,ability to competitively displace [3H]25-OHD3 binding (FIG. 1A),"IDBP [4]; 100 nM competitor, 2 nM [3H]25-OHD3",roughly equivalent in their ability to competitively inhibit
same,IC (maximal displacement),"IDBP [4]; IDBP, read-out: concentration of radioinert ligand required to achieve maximal displacement of [3H]25-hydroxyvitamin D3",0.05 to 0.1 µM
"C=C1/C(=C\C=C2/CCC[C@]3(C)[C@@H]([C@H](C)/C=C/[C@H](C)C(C)(C)O)CC[C@@H]23)C[C@@H](O)C[C@@H]1O [1,25-(OH)2D2, 1,25-dihydroxyvitamin D2]",RBI (Relative Binding Index),IDBP [4],35
same,binding / displacement of [3H]25-OHD3 by vitamin D2 metabolites and synthetic analogues (FIG. 2B),"IDBP [4]; unfractionated B95-8 extracts, 4 nM [3H]25-OHD3","bound in unfractionated extracts equivalently to 25-OHD3 and 1,25-(OH)^2 D3"
CCCCC[C@H](O)/C=C/[C@H]1[C@H](O)CC(=O)[C@@H]1C/C=C\CCCC(=O)O [PGE2],RBI (Relative Binding Index),IDBP [4],0
CC/C(=C(\c1ccccc1)c1ccc(OCCN(C)C)cc1)c1ccccc1 [Tamoxifen],RBI (Relative Binding Index),IDBP [4],0
